Row | Structure (SMILES) | melting point [°C]
1 | CC(C)NS(=O)(=O)c1ccc(N)cc1 | 112 to 114
2 | CN1CCC/C1=N/S(=O)(=O)c1ccc(N)cc1 | 172 to 174
3 | CCCCC1CCC(C(=O)CC#N)CC1 (stereo not drawn) | 52 to 54
4 | O=c1oc2ccccc2c(Cl)c1[N+](=O)[O-] | 160 to 162
5 | CC(C1CC2CCC1C2)n1c(N)cc(=O)[nH]c1=O (stereo not drawn) | 248 to 250
6 | FC(F)(F)c1ccnc(N2CCNCC2)n1 | 49 to 51
7 | O=Cc1cccnc1Cl | 50 to 54
8 | CN(C)C=C1C(=O)CCC1=O | 89 to 91
9 | Sc1n[nH]c(-c2cccnc2)n1 | 304 to 306
10 | COC(=O)CCNc1ccncc1[N+](=O)[O-] | 93 to 95
11 | FC(F)c1nnc2ccc(Cl)nn12 | 101 to 103
12 | O=c1[nH]c2ccccc2c(=O)n1CCO | 257 to 259
13 | CC1CCN(S(=O)(=O)c2ccc(N)cc2)CC1 | 108 to 110
14 | O=c1[nH]nc(N2CCNCC2)c(=O)[nH]1 | 150 to 152
15 | CCOc1ccccc1OCC(=O)NN | 94 to 96
16 | COC(=O)c1scnc1C1CC1 | 59 to 61
17 | Nc1ccn(-c2ccccc2)n1 | 77 to 79
18 | Nc1ccc(S(=O)(=O)N2CCCCC2)cn1 | 171 to 173
19 | CC(=O)OCC(=O)[C@@]1(O)CC[C@H]2[C@@H]3CCC4=CC(=O)CC[C@]4(C)[C@H]3[C@@H](O)C[C@@]21C | 219 to 221
20 | Nc1cccc(CN2CCOCC2)n1 | 129 to 131
21 | COC(=O)C1Nc2ccccc2S(=O)(=O)N1 (stereo not drawn) | 171 to 173
22 | Oc1ccc(-c2cscn2)cc1 | 146 to 148

Row | Structure (SMILES) | melting point [°C]
23 | ClC(Cl)(Cl)C(c1ccc(Br)cc1)c1ccc(Br)cc1 | 144 to 146
24 | OC(Cn1cncn1)c1ccc(Cl)cc1 (stereo not drawn) | 111 to 113
25 | N#Cc1c(N)sc2c1CCCCCC2 | 104 to 106
26 | Nc1cc(C2CC2)no1 | 52 to 54
27 | CC(=O)c1ccc(OC2CCOCC2)cc1 | 72 to 74
28 | O=S(=O)(NC1CCCC1)c1ccc(Cl)nc1 | 97 to 99
29 | CS(=O)(=O)c1ccc(Cl)s1 | 69 to 71
30 | NNc1ccc(-c2ccccc2)nn1 | 144 to 146
31 | Sc1nnnn1-c1cccc(Cl)c1 | 148 to 150
32 | N#Cc1ccc(N2CCCC(N)C2=O)cc1 (stereo not drawn) | 101 to 103
33 | O=c1oc2ccc([N+](=O)[O-])cc2n1CCCBr | 109 to 111
34 | N#CCOc1cc(F)ccc1N | 59 to 61
35 | COCCOc1ccc(C(F)(F)F)cc1N | 43 to 47
36 | CC(C)c1ccc(-c2nnn[nH]2)cc1 | 186 to 188
37 | Nc1ccc(NC(=O)c2ccccc2I)cc1 | 143 to 145
38 | O=c1[nH]ccc2cc[nH]c12 | 279 to 281
39 | CC(C)CN1CCOC(CNC(=O)CCl)C1 (stereo not drawn) | 83 to 85
40 | NCC(=O)N1CCN(c2ccccc2)CC1 | 69 to 71
41 | ClCc1nnc(-c2c(Cl)cccc2Cl)o1 | 46 to 48
42 | O=C(O)C1CC12CCOc1ccccc12 (stereo not drawn) | 159 to 161
43 | OCc1cccc(OCC(F)(F)F)c1 | 30 to 32
44 | CC(N)(C#N)Cn1cc(Br)cn1 (stereo not drawn) | 60 to 62

Row | Structure (SMILES) | melting point [°C]
45 | Cc1ccc(COc2cccc(N)c2)cc1 | 81 to 83
46 | CCN(CC)S(=O)(=O)c1ccc(N2CCN(C)CC2)c(N)c1 | 148 to 152
47 | CNc1n[nH]c(N)c1S(C)(=O)=O | 171 to 173
48 | Cc1ccc(-c2nc(N)sc2-c2ccc(C)cc2)cc1 | 153 to 155
49 | Cc1nn(Cc2c(Cl)cccc2Cl)c(Cl)c1C(=O)O | 187 to 189
50 | O=C(O)CCC(=O)NCC(=O)c1ccccc1F | 156 to 158
51 | CCOc1ccccc1-c1nn(C(C)(C)C)cc1C(=O)O | 207 to 209
52 | Nc1ccnc(Cc2ccccc2)n1 | 143 to 145
53 | OCC(NCc1ccccc1)C1CC1 (stereo not drawn) | 56 to 58
54 | CS(=O)(=O)Nc1ccccc1C#N | 99 to 101
55 | Nc1ccn(Cc2ccsc2)n1 | 43 to 45
56 | Clc1ccc(Cn2cncn2)cn1 | 61 to 63
57 | O=C(O)CNC(=O)/C=C/c1ccco1 | 218 to 221
58 | Nc1ncccc1-c1ccccc1 | 103 to 105
59 | CCCS(=O)(=O)Nc1ccc(N)cc1 | 111 to 113
60 | NNC(=O)c1ccc(S(=O)(=O)N2CCN(Cc3ccccc3)CC2)cc1 | 135 to 137
61 | Cn1c(S)nnc1-c1ccc(Cl)cc1 | 113 to 115
62 | O=C(O)CNC(=O)C1CCCCC1 | 153 to 157
63 | N#Cc1ccccc1-c1ccc(CBr)cc1 | 127 to 129
64 | O=C(CCCl)Nc1ccccn1 | 104 to 106
65 | O=C(CCl)NCCc1ccsc1 | 75 to 77
66 | Cn1ccnc1Sc1ccccc1N | 121 to 123

Other lines, results leading:

Row | melting point [°C] | Structure (SMILES)
67 | 118 to 120 | CNc1ccc(C=O)cc1[N+](=O)[O-]
68 | 68 to 70 | CCOc1cc(Br)c(CC#N)cc1OCC
69 | 203 to 204 | Cc1cc2nc(Cl)cc(=O)n2o1
70 | 103 to 105 | Cn1cc(C(=O)c2cccc(F)c2)cn1
71 | 163 to 169 | Cc1oc(N)c(C#N)c1C
72 | 143 to 145 | CCC(CC)(Cc1nc2ccccc2s1)C(=O)O
73 | 244 to 246 | Cc1nc(-c2ccccc2)oc1C(=O)O
74 | 133 to 135 | Cc1cc(C)cc(N(CCC(=O)O)S(=O)(=O)c2ccc(Br)cc2)c1
75 | 65 to 69 | Nc1cncc(Br)c1
76 | 155 to 159 | O=C(O)CCNS(=O)(=O)c1ccc(Cl)cc1
77 | 184 to 186 | Cc1ccc(O)c(C(=O)N2CCC(C(=O)O)CC2)c1
78 | 159 to 161 | CCc1c(C(=O)O)cnn1-c1ccccc1
79 | 251 to 253 | O=C(O)c1ccc(-c2ccc(Cl)cc2)cc1F
80 | 166 to 168 | NC(=O)c1cncc(Cl)n1
81 | 163 to 165 | Cc1ccc(NC(=O)N(C)C)c(C(=O)O)c1
82 | 124 to 126 | COc1cc(C(C)=O)ccc1S(C)(=O)=O
83 | 209 to 211 | Cc1nc(-c2ccc(F)c(F)c2)sc1C(=O)O
84 | 153 to 155 | CC(C)NC(=O)Cc1ccc(N)cc1
85 | 171 to 173 | Cc1cc(N)n(-c2cc(Cl)ncn2)n1
86 | 230 to 232 | CN1CCN(S(=O)(=O)c2cccc(C(=O)O)c2)CC1
87 | 168 to 170 | Cn1nnnc1-c1cccc(S(N)(=O)=O)c1
88 | 231 to 233 | O=C(O)c1[nH]nc(C2CC2)c1Cl
89 | 90 to 92 | CS(=O)(=O)C(Br)C(=O)c1ccccc1 (stereo not drawn)
90 | 219 to 221 | Cc1nc(C)c(C(=O)O)o1
91 | 141 to 145 | CCN(CC)S(=O)(=O)c1ccc(Br)c(C(=O)O)c1
92 | 122 to 124 | Nc1ccc(F)c(N2CCCC2=O)c1

Row | melting point [°C] | Structure (SMILES)
93 | 290 to 292 | O=C(O)c1ccc(Cl)c(N2CCNC2=O)c1
94 | 62 to 64 | COc1ccc(C(=O)c2ccco2)cc1
95 | 206 to 208 | Cc1oc2c(F)c(F)c(F)c(F)c2c1C(=O)O
96 | 127 to 129 | COC(=O)c1n[nH]c(=O)c2ccccc12
97 | 177 to 179 | O=C(O)c1ccc(OCCO)cc1
98 | 279 to 281 | O=C(O)c1ccc(=O)n(-c2cccc(Br)c2)c1
99 | 151 to 153 | O=C(O)CCS(=O)(=O)c1ccc(Br)cc1
100 | 178 to 180 | CC1CSc2ccccc2NC1=O (stereo not drawn)
101 | 271 to 273 | Cc1nn(-c2cccc(C(F)(F)F)c2)c2sc(C(=O)O)cc12
102 | 109 to 111 | CNc1cc(-c2cccc(OC)c2)[nH]n1
103 | 62 to 64 | Cc1ccc(I)c(O)c1
104 | 234 to 236 | CC(C)C(NC1=NS(=O)(=O)c2ccccc21)C(=O)O (stereo not drawn)
105 | 111 to 113 | COc1cc2c(cc1OC)C(c1ccccc1)NCC2 (stereo not drawn)
106 | 117 to 119 | Cc1cc2sc(N)nc2s1
107 | 183 to 185 | COc1ccc(Br)cc1CN1C(=O)CNC1=O
108 | 145 to 147 | CC(=O)c1sc(N)nc1-c1ccccc1
109 | 116 to 118 | O=S(=O)(Cl)c1csc(-c2ccc(Br)cc2)n1
110 | 222 to 224 | O=C(O)c1cccc(CSc2c(Cl)cccc2Cl)c1
111 | 64 to 66 | N#CCC(C(=O)O)c1ccccc1 (stereo not drawn)
112 | 173 to 175 | CS(=O)(=O)c1ccc(C(=O)O)o1
113 | 229 to 231 | CC1=NN(c2ccc(Cl)nn2)C(=O)C1
114 | 182 to 184 | NC(=O)c1cncn1-c1ccccc1
115 | 125 to 127 | Cc1ccc(C(=O)O)cc1NCc1ccc(Br)o1
116 | 196 to 198 | O=C(O)c1c[nH]cc1-c1ccc2c(c1)OCCO2
117 | 219 to 221 | Cc1oc(C(=O)O)cc1S(=O)(=O)N1CCCC1
118 | 106 to 108 | O=C(O)c1cccnc1-n1cccn1

Row | melting point [°C] | Structure (SMILES)
119 | 223 to 225 | Cc1cc(NC(=O)c2ccccc2Cl)sc1C(=O)O
120 | 49 to 51 | NCc1cc(Br)c2c(c1)OCO2
121 | 202 to 204 | CSc1nc(C(=O)O)c2ccccn12
122 | 132 to 134 | COC(=O)c1cnc(Cl)c(S(=O)(=O)N2CCOCC2)c1
123 | 45 to 47 | COc1cccc2cc(C=O)oc12
124 | 134 to 136 | Cn1nc(C(=O)NN)c2ccccc2c1=O
125 | 264 to 266 | O=CNc1ccc(C(=O)O)cc1
126 | 112 to 114 | COc1ccc(Br)cc1C(=O)O
127 | 57 to 59 | O=C(O)CSCc1ccc(Cl)cc1
128 | 49 to 51 | CCOC(=O)c1ncn(-c2ccccc2)n1
129 | 184 to 186 | O=C(CN1CCCC1)Nc1c(I)cc(I)cc1I
130 | 178 to 180 | CCN(c1ccccc1)c1ccc(C(=O)O)cc1
131 | 294 to 296 | Cc1nc(S)c(C(N)=O)c(C)c1C
132 | 165 to 167 | O=C(O)CS(=O)(=O)CC(=O)Nc1cccc(Br)c1
133 | 184 to 186 | Cc1cc(Br)cc(C)c1C(=O)O
134 | 306 to 308 | O=c1[nH]c(S)nc2cc(Cl)ccc12
135 | 169 to 171 | CCOC(=O)NC(=S)Nc1nccs1
136 | 84 to 86 | CC(C)c1nnc(CCC(=O)O)o1
137 | 239 to 241 | NS(=O)(=O)c1ccc(NCC(=O)O)cc1
138 | 203 to 205 | CN1C(=O)c2ccc(NC(=O)CCl)cc2C1=O
139 | 113 to 115 | COc1cc(OC)c2cc(CCCN)[nH]c2c1
140 | 261 to 263 | Cc1cc(C)c2nc(O)cc(C)c2c1
141 | 191 to 193 | COc1cc(C(=O)O)cc(Cl)c1OC
142 | 221 to 223 | CC(=O)NCc1ccc(-c2csc(N)n2)s1
143 | 98 to 100 | COc1ccc(Cn2ncc(C)c2N)cc1OC
